Assay results reported in PMC4253628, “Antiviral effects against EV71 of pimprinine and its derivatives isolated from Streptomyces sp” (Virology Journal, 2014).

Tests used:
EV71 [1] = test: Dependence of anti-EV71 activity on virus inoculum (cell viability, MTT) in RD cells; assay type: cell-based, Enterovirus 71
[2] = Cytotoxicity, MTT method, uninfected RD cells; assay type: cell-based; conditions: human; RD cells, MTT, 48 h; mean ± SD of three experiments; read-out: CC50, compound concentration required to reduce cell viability by 50%
Description: (§1) The 50% cell cytotoxic concentrations (CC50s) of compounds were calculated using SPSS software. SI were calculated from the ratio of CC50: EC50.

[3] = Cytotoxicity, ATPLite luminescence-based assay, Hep-2 cells; assay type: cell-based; conditions: human
Text: (§2) The ATPLite assay may be more sensitive to cytotoxicity than the MTT method. For RD and Hep-2 cells, similar results were obtained, and for HeLa and MDCK cells, the values of CC50 from the ATPLite assay were smaller than those from MTT assays (Tables 1, 2 and 3).

H1N1 [4] = test: Inhibition of H1N1-induced CPE in MDCK cells; assay type: cell-based, influenza virus A/human/Hubei/86/2009 (H1N1); conditions: MDCK cells
H1N1 [5] = test: Virus yield reduction assay, H1N1; assay type: cell-based, influenza virus A/human/Hubei/86/2009 (H1N1); conditions: MDCK cells; — = less than 90% inhibition
Description: Virus yield reduction assays were also carried out to evaluate further the protective effects of the tested compounds.
The virus suspension, serially diluted 10-fold with DMEM containing 2% FBS, was inoculated to cells in a 96-well plate. After 1 h incubation at 37°C in 5% CO2, unbinding virus was washed out and DMEM maintenance medium supplemented with 2% FBS was added to the cells. After 2 days, the infected cells were monitored for cytopathic effects (CPEs). The virus titer was calculated by the Reed–Muench method.

EV71 [6] = conditions: EV71, RD cells
Description: (§3) Cell viability was assessed by an MTT assay, which functions based on the reduction of a MTT into formazan dye by active mitochondria. The cells were treated with 100 μL of MTT (1 mg/mL, Sigma) and incubated at 37°C for 4 h. The reaction was blocked by DMSO and measured in a microplate reader (Bio-Tek Instruments) at 492 nm. The untreated control was arbitrarily set as 100%.
(§4) Confluent cell monolayers in 96-well dishes were infected with 100 TCID50 of corresponding virus dilution mixed with serial dilutions of tested compounds for 1 h at 37°C. Inocula were aspirated and the cells were then incubated with various concentrations of DMEM/tested compounds at 37°C, 5% CO2 for 48 h. CPE were observed microscopically and the viability of the cells was determined using MTT assays. […] The concentrations required for the tested compounds to achieve 50% protection of cells from virus-induced CPE were determined.

[7] = Cytotoxicity, MTT method, MDCK cells; assay type: cell-based, canine; conditions: dog, uninfected MDCK cells, host cells of H1N1: MDCK
Description: as §1

[8] = Cytotoxicity, ATPLite luminescence-based assay, RD cells; assay type: cell-based; conditions: human
Text: as §2

EV71 [9] = test: microbe, parasite or virus in culture; conditions: Enterovirus A, EV71, RD, 48 h, read-out: EC50, compound concentration required to achieve 50% protection from virus-induced cytopathogenicity
Description: as §3, §4

EV71 [10] = test: Progeny virus yield reduction, EV71 in RD cells; assay type: cell-based, Enterovirus 71
[11] = Cytotoxicity, MTT method, Hep-2 cells; assay type: cell-based; conditions: human, uninfected Hep-2 cells; host cells of CVB3: Hep-2, MTT, 48 h; read-out: CC50 (CVB3)
Description: as §1

[12] = Cytotoxicity, MTT method, HeLa cells; assay type: cell-based; conditions: human, uninfected HeLa cells; host cells of ADV-7: HeLa, MTT, 48 h; read-out: CC50 (ADV-7)
Description: as §1

CVB3 [13] = test: Virus yield reduction assay, CVB3; assay type: cell-based, Coxsackievirus B3; conditions: Hep-2 cells; — = less than 90% inhibition
ADV-7 [14] = test: Inhibition of ADV-7-induced CPE in HeLa cells
Description: as §3, §4

[15] = Cytotoxicity, ATPLite luminescence-based assay, HeLa cells; assay type: cell-based; conditions: human
Text: as §2

HSV-1 [16] = test: Plaque reduction assay, HSV-1 in Hep-2 cells
Description: Confluent monolayers of Hep-2 cells, seeded in a 24-well plate, were infected with HSV-1 at a density of 60–80 plaque-forming units (PFU) per well and treated with media (pre-warmed DMEM containing 2% FBS, 0.8% low-melting agarose) mixed with or without the serially diluted tested compounds for the periods indicated following different procedures. The cells were incubated at 37°C until plaques appeared, followed by fixing with 10% formaldehyde and staining with 0.5% crystal violet. The plaques were counted by visual examination. The ratio of the number of plaques in the treated group to that in the untreated control was calculated.
A plaque reduction assay was performed to measure the inhibitory effects of the test compounds against HSV-1 infection.

CVB3 [17] = test: Inhibition of CVB3-induced CPE in Hep-2 cells
Description: as §3, §4

ADV-7 [18] = test: Virus yield reduction assay, ADV-7; assay type: cell-based, adenovirus 7; conditions: Human mastadenovirus B; HeLa cells; read-out: EC90 ADV-7, concentration required to inhibit 90% virus yield
HSV-1 [19] = test: Virus yield reduction assay, HSV-1; assay type: cell-based, herpes simplex virus 1; conditions: Hep-2 cells; — = less than 90% inhibition
[20] = set-up: method as in PMID 11377760; conditions: in vivo, 80 mg/kg; cited from earlier work
[21] = Cytotoxicity, ATPLite luminescence-based assay, MDCK cells; assay type: cell-based, canine; conditions: dog
Text: as §2

Cc1ncc(-c2c[nH]c3ccccc23)o1 [Pimprinine, 5, 30-indolyl-2-methyloxazole]
viability at 10 µM (EV71 [1]; Enterovirus A, 10 μM, 10^4 TCID50 EV71, 48 h pi): 7% | viability at 20 µM (EV71 [1]; Enterovirus A, 20 μM, 10^4 TCID50 EV71, 48 h pi): 19% | viability at 40 µM (EV71 [1]; Enterovirus A, 40 μM, 10^4 TCID50 EV71, 48 h pi): 16% | viability at 80 µM (EV71 [1]; Enterovirus A, 80 μM, 10^4 TCID50 EV71, 48 h pi): 22% | viability at 160 µM (EV71 [1]; Enterovirus A, 160 μM, 10^4 TCID50 EV71, 48 h pi): 28% | anti-EV71 inhibition at excessive virus inoculum (EV71 [1]; virus concentration above 10^4 TCID50): no inhibition observed | CC50 at 48 h [2]: 1460 ± 27 µM | CC50 [3]: 403 ± 53 µM | inhibition of H1N1 infection (H1N1 [4]): negligible measurable inhibition | EC50 H1N1 (H1N1 [4]; 100 TCID50, 48 h, CPE, — = less than 50% inhibition): — (—, less than 50% or 90% inhibition) | EC90 H1N1, concentration required to inhibit 90% virus yield (H1N1 [5]): — (—, less than 50% or 90% inhibition) | SI (selectivity index), ratio CC50/EC50 (EV71 [6]): 16 | CC50 at 48 h [7]: 899 ± 56 µM | CC50 [8]: 1260 ± 247 µM | EC50 (EV71 [9]): 89 ± 18 µM | reduction in progeny virus titers relative to virus control (EV71 [10]; 80 μM, 100 TCID50 EV71, RD cells, 10 h): approximately 0.5 log | EC90 (EV71 [10]; Enterovirus A, EV71, RD cells, progeny viral yield, read-out: EC90, compound concentration required to achieve 90% virus yield reduction): 149 ± 12 µM | CC50 at 48 h [11]: 443 ± 35 µM | CC50 at 48 h [12]: 1140 ± 181 µM | EC90 CVB3, concentration required to inhibit 90% virus yield (CVB3 [13]): —^f (—, less than 50% or 90% inhibition) | SI ADV-7, ratio CC50/EC50 (ADV-7 [14]; HeLa cells): 8 | EC50 (ADV-7 [14]; Human mastadenovirus B, HeLa, 48 h, read-out: EC50 ADV-7): 150 ± 10 µM | CC50 [15]: 940 ± 219 µM | SI HSV-1, ratio CC50/EC50 (HSV-1 [16]; Hep-2 cells): 3 | EC50 (HSV-1 [16]; Human alphaherpesvirus 1, HEp-2, read-out: EC50 HSV-1): 160 ± 18 µM | EC50 (CVB3 [17]; Enterovirus B, CVB3, HEp-2, 48 h, read-out: EC50 CVB3): 95 ± 16 µM | SI CVB3, ratio CC50/EC50 (CVB3 [17]; Hep-2 cells): 5 | EC90 (ADV-7 [18]): 266 ± 14 µM | EC90 HSV-1, concentration required to inhibit 90% virus yield (HSV-1 [19]): — (—, less than 50% or 90% inhibition) | protection against electrically induced convulsions [20]: significant protection | CC50 [21]: 649 ± 77 µM
